Data: PubChem BioAssay (NCI)
Where “and” joins values, the source holds several entries; their conditions need not be identical. Equal values may be shown once.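 Method: 48-hour compound exposure of cells in 96-well plates, five concentrations, linear interpolation of endpoints. Here, GI50 denotes the concentration required for 50% inhibition of growth. TGI: total growth inhibition.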 Where a SMILES comes first, the peptide text is derived from it. [ ]: non-standard residue; d: D form. The star is where a group is joined. Bn2Val = CC(C)[C@@H](C(=O)*)N(Cc1ccccc1)Cc1ccccc1; NH(3,4-diMeO-benzyl) = COc1ccc(CN*)cc1OC; NMeV = CN[C@H](C(=O)O)C(C)C; dNMeA = CN[C@H](C)C(=O)O

Legend:
Experiment in all cases: NCI-60 cell line screen, 48 h
EKVX NSCLC = test system: EKVX NSCLC
UACC-62 melanoma = test system: UACC-62 melanoma
KM12 colon = test system: KM12 colon
K-562 leukemia = test system: K-562 leukemia
A498 renal = test system: A498 renal
IGROV1 ovarian = test system: IGROV1 ovarian
SK-OV-3 ovarian = test system: SK-OV-3 ovarian
ACHN renal = test system: ACHN renal
NCI-H522 lung = test system: NCI-H522 lung
SF-268 CNS = test system: SF-268 CNS

| Structure (SMILES) | TGI (EKVX NSCLC) | TGI (UACC-62 melanoma) | TGI (KM12 colon) | TGI (K-562 leukemia) | TGI (A498 renal) [µM] | TGI (IGROV1 ovarian) | TGI (SK-OV-3 ovarian) | TGI (ACHN renal) | TGI (NCI-H522 lung) | TGI (SF-268 CNS) | GI50 (EKVX NSCLC) [µM] | GI50 (UACC-62 melanoma) [µM] | GI50 (KM12 colon) [µM] | GI50 (K-562 leukemia) [µM] | GI50 (A498 renal) [µM] | GI50 (IGROV1 ovarian) [µM] | GI50 (SK-OV-3 ovarian) [µM] | GI50 (ACHN renal) [µM] | GI50 (NCI-H522 lung) [µM] | GI50 (SF-268 CNS) [µM] |
| --- | --- | --- | --- | --- | --- | --- | --- | --- | --- | --- | --- | --- | --- | --- | --- | --- | --- | --- | --- | --- |
| COc1cc2c(NCCCCCCO[N+](=O)[O-])ncnc2c(OC)c1OC | 68.3 µM | 43.6 µM | 33.5 µM | > 100 µM | 52 | > 84.4 µM | > 100 µM | > 100 µM | 52.9 µM | > 100 µM |  |  |  |  |  |  |  |  |  |  |
| O=S(=O)(O)C(O)/C=C/c1ccccc1 (stereo unspecified) | > 100 µM | > 100 µM | > 100 µM | > 100 µM | > 100 | > 100 µM | > 100 µM | > 100 µM | > 100 µM | > 100 µM |  |  |  |  |  |  |  |  |  |  |
| CN(C)CCNC(=O)c1cccc2nc3c(Cl)cccc3nc12 | 32.9 µM | 3.87 µM | 30.4 µM | 8.74 µM | 16.9 | > 86.4 µM | > 31.6 µM | 30.5 µM | > 100 µM |  |  |  |  |  |  |  |  |  |  |  |
| COc1ccccc1NC(=O)c1ccc(/C=C/C(=O)c2nccn2C)cc1 | 1.89 µM | 0.986 µM | 0.872 µM | 11.6 µM | 1.49 | 1.34 µM | 10.7 µM | 1.09 µM | 1.52 µM | 1.97 µM | 0.591 | 0.472 | 0.44 | 0.588 | 0.555 | 0.523 | 1.06 | 0.532 | 0.584 | 0.631 |
| CN1CCN(Cc2ccc(NC(=O)c3cncc(C#Cc4cnc(N)c5ccccc45)c3)cc2C(F)(F)F)CC1 | 0.974 µM | 1.16 µM | 0.43 µM | 0.524 µM | 1.14 | 0.615 µM | 0.638 µM | 0.523 µM | 0.967 µM | 0.832 µM | 0.413 | 0.587 | 0.0148 | 0.00333 | 0.299 | 0.127 | 0.199 | 0.145 | 0.367 | 0.321 |
| Cc1cc(C)nc(NS(=O)(=O)c2ccc(NC(=O)c3cccc4c(=O)c5ccccc5[nH]c34)cc2)n1 | 86.3 µM | 44.5 µM | 30.7 µM | 90.3 µM | 34.9 | 68.1 µM | 17.1 µM | 49.2 µM | 27.6 µM | 48.2 µM |  |  |  |  |  |  |  |  |  |  |
| CNC(=O)c1cc(Oc2ccc3c(c2)sc2nc(-c4ccc(N)cc4)cn23)ccn1 | > 100 µM | > 100 µM | > 100 µM | > 100 µM | 0.65 | > 100 µM | > 100 µM | > 100 µM | 0.573 µM | > 100 µM | 0.458 | 0.0982 | 0.196 | 0.0911 | 0.0762 | 0.609 | 0.47 | 0.75 | 0.165 | 0.791 |
| C#CC(C)(C)Oc1cc(O)c2c(=O)c3ccccc3n(C)c2c1 | > 100 µM | > 100 µM |  | > 100 µM | > 100 | > 100 µM | > 100 µM | > 100 µM | > 100 µM | > 100 µM |  |  |  |  |  |  |  |  |  |  |
| CCOc1ccc2nc(NC(=O)/C(CC(=O)CC(C3=C(O)c4ccccc4CC3=O)c3ccccc3)=N\O)sc2c1 (stereo unspecified) | > 100 µM | > 100 µM | > 100 µM | > 100 µM | > 100 | > 100 µM | > 100 µM | > 100 µM | > 100 µM | > 100 µM |  |  |  |  |  |  |  |  |  |  |
| O=C1Oc2cc3c(c4cccc1c24)OCN(c1ccc(Cl)cc1)C3 | > 100 µM | > 75 µM | > 63.6 µM | 53.2 µM | > 100 | > 100 µM | > 100 µM | > 100 µM | 30.8 µM | > 100 µM |  |  |  |  |  |  |  |  |  |  |
| CCCNC(=O)OCc1c(COC(=O)NCCC)c(-c2ccc(Cl)c(Cl)c2)n2c1CCC2 | 30.2 µM | 13.3 µM | 28.5 µM | 26.6 µM | 3.24 | 5.54 µM | 10.5 µM | 6.28 µM | 4.32 µM | 21.5 µM |  |  |  |  |  |  |  |  |  |  |
| COC(=O)c1c(OC)cccc1C(=O)O | > 100 µM | > 100 µM | > 100 µM | > 100 µM | > 100 | > 100 µM | > 100 µM | > 100 µM | > 100 µM | > 100 µM |  |  |  |  |  |  |  |  |  |  |
| CCN1CCN(c2nc(NCCNc3ccnc4cc(Cl)ccc34)c3ccccc3n2)CC1 | 11.6 µM | 2.94 µM | 5.18 µM | 3.89 µM | 3.35 | 4.69 µM | 4.71 µM | 3.89 µM | 4.54 µM | 13.3 µM | 2.62 | 1.41 | 1.63 | 1.03 | 1.68 | 1.62 | 2.13 | 1.93 | 2.14 | 2.51 |
| O=C1c2ccccc2C(=O)c2c1ccc1[nH]c(CCl)nc21 | 10.7 µM | 4.99 µM | 10.8 µM | 17 µM | 7.06 | 6.59 µM | 9.08 µM | 6.49 µM | 3.53 µM | 8.1 µM | 2.59 | 2.06 | 3.14 | 2.98 | 1.27 | 2.03 | 3.67 | 2.27 | 1.63 | 2.22 |
| O=C(O)c1cc(S(=O)(=O)N=NC=C2c3ccccc3N(O)c3ccccc32)ccc1O | > 100 µM | 22 µM | > 100 µM | > 100 µM | 41 | 83.1 µM | 92.2 µM | 59.6 µM | 23.8 µM | 34.4 µM |  |  |  |  |  |  |  |  |  |  |
| CN(C)c1ccc(/C=C2\C[N+](C)(C)C/C(=C\c3ccc(N(C)C)cc3)C2=O)cc1 | > 100 µM | 30.6 µM | 19.1 µM | 31.3 µM | > 100 | 18 µM | 73.1 µM | > 100 µM | 26.2 µM | 66.2 µM |  |  |  |  |  |  |  |  |  |  |
| COc1ccc(CNC(=O)[C@@H](C)N(C)C(=O)[C@@H]2CCCN2C(=O)[C@H](C(C)C)N(C)C(=O)[C@@H](NC(=O)[C@H](C(C)C)N(Cc2ccccc2)Cc2ccccc2)C(C)C)cc1OC (Bn2Val-V[NMeV]P[dNMeA]-{NH(3,4-diMeO-benzyl)}) | 50 µM and 49.1 µM | 14 µM and 27.2 µM | 30 µM and 27.4 µM | 50 µM and > 100 µM | 23.7 | 13.6 µM and 28.3 µM | 36.3 µM and 96.7 µM | 14.9 µM and 23.9 µM | 10.7 µM and 45.1 µM | 14.8 µM and > 100 µM | 10.4 | 13.5 |  | 6.52 |  | 11.1 | 23.6 | 8.21 | 9.05 | 17.6 |
